By IC50 is commonly meant the concentration needed to halve the response being measured.

SMILES strings stand for the structures. The source made the active and inactive calls.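 How the source made its calls: active means compounds whose IC50 against parasite growth in infected mouse cells is below 50000 nM; inactive means the rest.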 A value given as a limit tells only on which side of the number the result lay.

This note sets out measurements from PubChem BioAssay AID1159559 (GlaxoSmithKline (GSK), 2015).

For this experiment, the system named is T. cruzi Tulahuen in NIH-3T3, beta-gal fluorescence, 4 d. Nature of the experiment: T. cruzi intracellular growth inhibition, cell-based (AID 1159559).

In the case of `COc1ccc(-c2ccc3nnc(-c4ccc(O)c(OC)c4)n3c2)cn1`, the IC50 is 1.3 µM. Turning to `O=C(c1ccccc1)N1CCC(C(=O)N2CCC(Oc3ccccc3Cl)CC2)CC1`, the IC50 was 2 µM. The value for `CC1=NN(C(=O)CCn2cnc([N+](=O)[O-])n2)C(O)(C(F)(F)F)C1` (configuration not stated) was 2 µM; that for `COc1ccc(NS(=O)(=O)c2cc(NC(=O)Cc3ccc(C)cc3)ccc2N2CCOCC2)cc1` was 2 µM; that for `CCC(CC)C(=O)Nc1cccc(C(=O)Nc2nnc(C3CCCCC3)s2)c1` was 10 µM. Regarding `COc1ccc2c(Cl)c(C(=O)N3CCC3)sc2c1Cl`, the IC50 was 0.4 µM.

Regarding `CCN(CC)c1nc(N(C)C)nc2c1CN(Cc1ccccc1)CC2`, the IC50 is 6.3 µM. Regarding `CC(Cn1ccnc1)NC(=O)C=Cc1ccc(Cl)cc1` (configuration not stated), the IC50 is 0.4 µM. Take `CC(C)c1sc(Cl)nc1C(=O)NCCc1nc(C(=O)Nc2ccc3c(c2)OCO3)cs1`: the IC50 was 4 µM. Regarding `CC(C)(C)CC(=O)NCc1noc(COc2ccccc2)n1`, the IC50 is 2.5 µM. Take `Cc1cccc(NS(=O)(=O)c2cnc3sc(C)cn3c2=O)c1`: the IC50 was 1.3 µM. Then `CC(=O)Nc1ccc(-c2cnc(N)c(-c3nc4ccc(F)cc4[nH]3)c2)cc1`, with 0.63 µM; and `OC[C@@H](Nc1nccc(-c2c(-c3ccc(F)cc3)ncn2C2CCNCC2)n1)c1ccccc1`, with 32 µM; and `N#Cc1cccc(Nc2nccc(N3CCC(NS(=O)(=O)c4cccc(C#N)c4)CC3)n2)c1`, with 1.6 µM. For the molecule `CCc1cccc(-n2nc(OCC(=O)NC3CCCC3)c3cccnc32)c1`, the IC50 is > 50 µM (inactive). On to `CC1=C(C(=O)Nc2ccc(Cl)cc2)C(c2ccncc2)n2ncc(C(=O)Nc3ccccc3)c2N1` (configuration not stated), for which the IC50 was 0.02 µM. For `CC(=O)Nc1ccc(Nc2nccc(-c3cnn4ncccc34)n2)cc1C(F)(F)F`, the IC50 is 0.05 µM.

Regarding `Cn1cncc1CN1CCC2(CC1)COC(Cc1ccccc1)C2` (configuration not stated), the 50% inhibitory concentration (IC50) is 0.32 µM. The value for `O=c1ccc2ccc(F)c3c2n1C[C@H]3CN1CCC(NCc2cc3ccccc3o2)CC1` was 0.4 µM; that for `NCC(Cc1ccccc1)NC(=O)c1cnc(-c2c[nH]c3ncccc23)s1` (configuration not stated) was 2 µM. The value for `COc1ccc(Nc2nccc(N(C)c3n[nH]c4c(F)cccc34)n2)cc1S(C)(=O)=O` was 2 µM; that for `CN(Cc1nc2ccc(C(=O)NCC3CCCCC3)cc2[nH]1)C1CCCc2cccnc21` (configuration not stated) was 0.5 µM. With `O=C(Nc1nc2ccccc2[nH]1)c1ccc2nc[nH]c2c1`, the IC50 is 25 µM. Then `COc1ccc2ncc(Cl)c(CCN3CC[C@H](NCc4cc5c(cn4)OCS5)[C@@H](O)C3)c2n1`, with 0.13 µM; and `CCc1cccc(CC)c1-n1c(SCC(=O)NC(=O)NCc2ccco2)nnc1-c1cccnc1`, with 13 µM. The value for `CCC(=O)Nc1ccc(C(=O)Nc2ccccc2-c2ccccc2)cc1` was 0.5 µM; that for `CC(C(=O)Nc1ccccc1F)N(C)CC(=O)Nc1cccc2ccccc12` (configuration not stated) was 0.4 µM. As for `Cn1nccc1-c1cc(OC(CN)c2ccccc2)cnc1-c1ccco1` (configuration not stated), the IC50 was 0.4 µM. The value for `O=C(Cc1ccccc1)Nc1ccccc1C(=O)Nc1nccs1` was 40 µM. With `COc1ccc(CNc2cc(C3CC3)nc(-c3nccn3C)n2)cc1`, the IC50 was 1 µM. The value for `COc1ccc(NC(=O)c2ccc(NC(=O)CN(c3ccccc3C)S(C)(=O)=O)cc2)cc1` was 32 µM; that for `COc1ccccc1C(=O)Nc1nnc(-c2ccc3c(c2)OCO3)s1` was 2.5 µM. Regarding `O=C(c1ccc(OCCCc2cnc[nH]2)cc1)C1CC1`, the IC50 was 0.32 µM.

On to `CCCc1cc(N)nc(-c2cc(CCC)cc(N)n2)c1`, for which the IC50 is 2 µM. On to `Clc1ccc(OCCN2CCCCC2c2cccnc2)c(Cl)c1` (configuration not stated), for which the IC50 was 0.4 µM. Then `O=C(NC1C(=O)N(c2ccccc2)C1c1cccnc1)c1ccc(Cl)s1` (configuration not stated), with 0.032 µM; and `O=c1ccn(-c2ccc([N+](=O)[O-])cc2Cl)c2ccc(F)cc12`, with 1.6 µM. The value for `CCN(CC)c1ncc(C(=O)c2ccc([N+](=O)[O-])o2)s1` was 4 µM; that for `COCc1cc(Nc2ccccc2)nc(-c2ccccn2)n1` was 5 µM; that for `COc1ncc(-c2ccc3ncnc(N4CCOCC4)c3c2)cc1NS(C)(=O)=O` was 0.5 µM. Then `Cc1ccc2sc(NC(=O)Cn3cnc([N+](=O)[O-])n3)nc2c1`, with 1.3 µM; and `NC(=O)c1ccc(-c2cccc(OCCN3CCN(C4CCCCC4)CC3)c2)cc1`, with 1.6 µM; and `CN(Cc1ccc(F)cc1)c1ccc(OCC(=O)N2CCCCC2c2cccnc2)nn1` (configuration not stated), with 0.32 µM.

With `CN(Cc1cc2ccccc2s1)c1ncc2c(N)nc(N)nc2n1`, the IC50 is 2 µM. For the molecule `O=C(CN(Cc1ccccn1)Cc1ccccn1)NCc1csc(-c2cccs2)n1`, the IC50 was 4 µM. Then `O=C1COC(c2ccccc2)(c2ccccc2)CN1C1CCN(Cc2ccc(-n3ccnc3)cc2)CC1`, with 1.6 µM; and `O=C(c1cnn(-c2ccccc2)n1)N1CCCC(n2ccnc2)C1` (configuration not stated), with 0.05 µM; and `O=C(c1cccc(Nc2ncc(-c3ccc4c(c3)OCO4)cn2)c1)N1CCSC1`, with 2.5 µM. For the molecule `NS(=O)(=O)c1ccc(Nc2nccc(-c3cnn4ncccc34)n2)cc1`, the IC50 was 2.5 µM.

Take `Cc1occc1C(=O)Nc1ccccc1C(=O)Nc1nccs1`: the IC50 was > 50 µM (inactive).

For `Cc1ccccc1CNc1cc(C2CC2)nc(-c2nccn2C)n1`, the IC50 is 0.79 µM. With `c1ccc2sc(Nc3nc4ncccc4[nH]3)nc2c1`, the IC50 was 1 µM.

Take `Cc1cc2nc(CN(C)Cc3ncccc3C)[nH]c2cc1C`: the IC50 is 0.5 µM. Turning to `CC(C)(C)C(Cn1ccnc1)NC(=O)c1ccc2nc(C3CC3)oc2c1` (configuration not stated), the IC50 is 0.1 µM.

Regarding `CCOC(=O)c1cn[nH]c1S(=O)(=O)N1CCC1c1ccccc1` (configuration not stated), the IC50 is > 50 µM (inactive). The value for `O=c1ccc2ccc(F)c3c2n1C[C@H]3CN1CCN(CC(O)c2cc3c(cn2)OCS3)CC1` (some centres not stated) was 0.63 µM; that for `CCN(Cc1cccs1)C(=O)CSc1nnc(-c2ccc3c(c2)OCO3)o1` was 4 µM. Then `O=C(NCc1ccc(-n2cccc2)cc1)c1nc(Cn2ccc([N+](=O)[O-])n2)no1`, with 2.5 µM; and `Cc1ccc(NC(=O)C(C)n2nc([N+](=O)[O-])c(Br)c2C)cc1Cl` (configuration not stated), with 2.5 µM; and `Cc1cc(C)c(C#N)c(SCC(=O)c2ccc3c(c2)OCO3)n1`, with 2 µM. The value for `CS(=O)(=O)c1ccccc1C(=O)N(Cc1ccccc1)c1ccccc1` was 50 µM; that for `N#Cc1nc(C=Cc2ccccc2)oc1NCc1cccnc1` was 0.25 µM; that for `O=C(Cn1cnc([N+](=O)[O-])n1)Nc1ccc(Cl)cc1C(=O)c1ccccc1` was 0.25 µM. As to `O=C(Nc1ccccc1)Nc1nc(-c2ccccn2)cs1`, the IC50 is 0.63 µM.

Take `Cc1cc(Oc2cc(Cl)c(Cl)cc2Cl)n2ncnc2n1`: the IC50 was 5 µM. For `COCCn1c(-c2ccccc2)cnc1NCc1ccccc1OC`, the IC50 is 13 µM.

As to `CC(Cn1ccnc1)NC(=O)COc1ccc(Cl)c(Cl)c1` (configuration not stated), the IC50 was 0.2 µM. Then `CC(C)c1cc(Nc2cc(Cc3ccccc3)nc(NC3CCC(O)CC3)n2)n[nH]1` (configuration not stated), with 0.079 µM; and `Clc1ccc(C(CC2CCCCO2)Cn2cncn2)c(Cl)c1` (configuration not stated), with 0.4 µM; and `O=C(COc1nn(-c2ccccc2)c2ncccc12)NCc1ccccc1`, with 13 µM. For the molecule `CCCc1nc2nc(N)nc(N)c2cc1CC`, the half-maximal inhibitory concentration (IC50) was 0.32 µM. Turning to `O=C(CSc1ccc(F)cc1)N[C@@H](Cc1cnc[nH]1)C(=O)NCCc1ccccc1`, the IC50 is 0.4 µM.

As to `Cc1cc(NC(=O)C2CCCCC2)n(-c2nc3c(c(=O)[nH]2)CCC3)n1`, the IC50 is 0.32 µM. For the molecule `Cc1c([N+](=O)[O-])c(C(=O)Nc2sc3c(c2C#N)CCC(C)C3)nn1C` (configuration not stated), the IC50 is 2.5 µM.

For `Cc1cc(Br)sc1CNCCCNc1cc(=O)c2ccccc2[nH]1`, the IC50 is 1.6 µM. `CCOc1ccc(N(C)S(=O)(=O)c2ccc3[nH]cc(C(=O)NC4CCCC4)c(=O)c3c2)cc1`: the IC50 was 7.9 µM. `O=C(N[C@H](CO)c1ccccc1)c1ccc(-c2c[nH]c3nccc(C(F)(F)F)c23)s1`: the IC50 is 7.9 µM. `CC(C)C[C@H](NC(=O)c1csc(-c2cccs2)n1)C(=O)NC1(C#N)CC1`: the IC50 is 25 µM. For the molecule `Nc1ncnc2c1ncn2[C@@H]1O[C@H](CO)C[C@H]1O`, the IC50 was 1 µM. In the case of `CNC(=O)C1Cc2ccccc2N1C(=O)Cc1ccc(F)cc1` (configuration not stated), the IC50 is > 50 µM (inactive). Take `COc1ccc([N+](=O)[O-])cc1NC(=O)Nc1cccc(Cl)c1`: the IC50 was 0.79 µM. Then `O=S1N=C(NCCCN(Cc2ccc(F)cc2)c2ccccn2)C(NCc2ccncc2)=N1` (configuration not stated), with 32 µM.

Turning to `CCNc1cc(-c2ccccn2)nc(Nc2ccc(OC)cc2)n1`, the IC50 was 0.63 µM. As for `c1ccc(CCNCc2cncc3nc(-c4cnccn4)n(C4CCCCC4)c23)cc1`, the IC50 is 0.32 µM. As to `N#Cc1ccccc1S(=O)(=O)N1CCN(C(=O)CNC(=O)c2ccc3c(c2)OCO3)CC1`, the IC50 is 16 µM. Then `O=C(NCC(c1cccnc1)N1CCc2ccccc2C1)C(=O)Nc1cccc(Cl)c1` (configuration not stated), with 0.2 µM; and `O=C(c1cccc(Nc2ncc(-c3ccc4c(c3)OCO4)cn2)c1)N1CCOCC1`, with 6.3 µM.

On to `Cc1cc(C#N)c([N+](=O)[O-])cc1Br`, for which the half-maximal inhibitory concentration (IC50) was 0.2 µM.

Consider `O=C(NCc1nnc2n1CCCCC2)c1ccc(-c2ccc(F)cc2)o1`, for which the IC50 was 1.3 µM.

With `CC(C)(C)C(=O)NCCc1csc(-c2ccc(F)cc2)n1`, the IC50 was 3.2 µM.

`Cc1cn[nH]c1C1CCCN(Cc2nc3ccccc3n2C)C1` (configuration not stated): the IC50 is 3.2 µM.

Take `N#Cc1ccc(S(=O)(=O)N2CCC3(CCN(c4ccccc4)C3=O)CC2)cc1`: the IC50 is 1.3 µM. Then `CNC(=O)C1Cc2ccccc2N1C(=O)Cc1ccc(OC)cc1` (configuration not stated), with > 50 µM (inactive); and `COc1ccccc1C1CC(c2ccc(NS(C)(=O)=O)cc2)=NN1C(=O)c1cccs1` (configuration not stated), with 25 µM. On to `CCCCCNC(=O)c1c[nH]c2ccc(S(=O)(=O)N(C)c3ccc(OCC)cc3)cc2c1=O`, for which the IC50 is 32 µM. `Cc1ccc2c(c1)-c1onc(C(=O)N3CCCCC3c3cccnc3)c1CO2` (configuration not stated): the IC50 is 0.1 µM. Then `CS(=O)(=O)c1cccc(-c2cnc(N)c3c(-c4ccc(CO)cc4)csc23)c1`, with 0.79 µM.
